Results reported in patent publication US7235536B2, “Cellulose sulfate and other sulfated polysaccharides to prevent and treat papilloma virus infection and other infections” (Rush Presbyterian-St. Luke's Medical Center, priority 2000, dated 2007).

Assays:
[1] = system: Bacteroides fragilis; assay: Broth method MIC; type: cell-based
[2] = system: Prevotella intermedia; assay: Broth method MIC; type: cell-based; conditions: for CS MIC: Broth (study 2)
[3] = system: HPV-11; assay: RT-PCR ELISA for transient infection of human A431 cells, HPV-11; type: cell-based, human papilloma virus; conditions: with virus (HPV-11)
Experimental: Cellulose sulfate and dextran sulfate were each prepared as a 2 mg/ml solution in 0.9% NaCl and tested for microbicidal activity using the in vitro HPV transient infection assay originally described by Smith and colleagues (Smith, L. H., C. Foster, M. E. Hitchcock, and R. Isseroff. 1993. In vitro HPV-11 infection of human foreskin. J. Invest. Dermatol. 101:292-295) with some modifications (Ludmerer, S. W., W. L. McClements, X. M. Wang, J. C. Ling, K. U. Jansen, and N. D. Christensen. 2000. HPV11 mutant virus-like parties elicit immune responses that neutralize virus and delineate a novel neutralizing domain. Virology 266:237-245). An ELISA-based read-out of Optical Density (OD) values using alkaline phosphatase cleavage of the substrate p-nitrophenyl phosphate was also used to measure HPV infection as described below.
A modification of the RT-PCR assay that incorporates an ELISA-based read-out (Boehringer-Mannheim) was also included to assess microbicidal activity. Replicate cell cultures of A431 cells were infected with an aliquot of infectious HPV virions as described above. After 4 days of culture, cells were harvested and RNA extracted. RNA was subjected to RT using downstream anti-sense (reverse) primers for HPV-11 or HPV-40 and β-actin (as a control/housekeeping cellular transcript) to initiate cDNA synthesis. The cDNA was processed through 2 sets of 30 cycles of PCR amplification using nested primers: the second set of cycles used digoxygenin (DIG)-dUTP to label the PCR products with DIG. DIG-labeled PCR products were denatured then renatured together with a biotinylated oligonucleotide specific for the targeted PCR product. Biotinylated products were detected in ELISA with plates coated with streptavidin (to capture the biotinylated target PCR product) then anti-DIG antibody and substrate. Labeled PCR products were added directly to ELISA plates, or titrated at 10-fold dilutions in duplicate for each cell culture for each virus dilution.

[4] = system: Aspergillus niger; assay: Microbial challenge of CS gel; type: cell-based
Experimental: (§1) 6% CS was prepared in water as a translucent gel. Twenty grams of the gel was placed in a plastic screw-cap centrifuge tube. The microbial inoculants were prepared, gently vortexed and 0.1 ml inoculant was aseptically pipetted into the 20.0 gram gel. This procedure was repeated for each microbial organism. The samples were incubated at room temperature (20-25° C.) for 14 days or 28 days. The microbes tested and their theoretical yields can be found in Table F. After 14 or 28 days incubation, dilutions (10^−1, 10^−2, 10^−3) of the gels were made in saline and 1 ml plated onto Sabouraud dextrose (Aspergillus and Candida) or onto tryptic soy (other microbes). The number of organisms that grew after 3-7 days at room temperature were counted.
(§2) In another study, CS was dissolved in water at the concentrations indicated below. No other ingredients, including preservatives, were added. The gels were challenged with microbes as described above except that the gels were examined for the presence of microbes after 1, 2, 3, 4 and 7 days. The amount of microbes origially inoculated in the gels is also shown below.

[5] = system: Staphylococcus aureus; assay: Microbial challenge of CS gel; type: cell-based
Experimental: as §1, §2

[6] = system: Escherichia coli; assay: Microbial challenge of CS gel; type: cell-based
Experimental: as §1, §2

## sodium cellulose sulfate
[1]; ATCC (first listed), Broth (study 1)
  CS MIC: NI (not inhibited by 10 mg/ml (the highest concentration tested))
[1]; ATCC (first listed), Broth (study 2)
  CS MIC: 10 mg/mL
[1]; ATCC (second listed), Broth (study 2)
  CS MIC: NI (not inhibited by 10 mg/ml (the highest concentration tested))
[1]; at the concentrations tested
  growth inhibition: one strain of Bacteroides fragilis was inhibited but three others were not
[1]; rma# 11647, Broth (study 2)
  CS MIC: NI (not inhibited by 10 mg/ml (the highest concentration tested))
[1]; rma# 11652, Broth (study 2)
  CS MIC: NI (not inhibited by 10 mg/ml (the highest concentration tested))
[2]; all strains
  growth inhibition: inhibited
[2]; rma# 11142
  CS MIC: 10 mg/mL
[2]; rma# 11168
  CS MIC: 10 mg/mL
[3]; 10 μg/ml at viral pretreatment
  Mean (SD) of O.D. reading for RT-PCR ELISA, HPV-11 probe: 1.485 (0.045) O.D.
[3]; 100 μg/ml at viral pretreatment
  Mean (SD) of O.D. reading for RT-PCR ELISA, HPV-11 probe: 0.049 (0.001) O.D.
[3]; 1000 μg/ml at viral pretreatment
  Mean (SD) of O.D. reading for RT-PCR ELISA, HPV-11 probe: 0.038 (0.001) O.D.
[4]; 6% CS gel, ATCC 16404, room temperature, Day 14
  Day 14 CFU/g: 0 CFU/g
[4]; 6% CS gel, ATCC 16404, room temperature, Day 28
  Day 28 CFU/g: 0 CFU/g
[4]; CS 0.06% in water, 24 hours
  Asperigillus niger CFU: 0 CFU × 10^5/ml
[4]; CS 0.06% in water, 48 hours
  Asperigillus niger CFU: 0 CFU × 10^5/ml
[4]; CS 0.06% in water, 72 hours
  Asperigillus niger CFU: 0 CFU × 10^5/ml
[4]; CS 0.06% in water, 96 hours
  Asperigillus niger CFU: 0 CFU × 10^5/ml
[4]; CS 0.06% in water, 7 days
  Asperigillus niger CFU: 0 CFU × 10^5/ml
[4]; CS 0.6% in water, 24 hours
  Asperigillus niger CFU: 0 CFU × 10^5/ml
[4]; CS 0.6% in water, 48 hours
  Asperigillus niger CFU: 0 CFU × 10^5/ml
[4]; CS 0.6% in water, 72 hours
  Asperigillus niger CFU: 0 CFU × 10^5/ml
[4]; CS 0.6% in water, 96 hours
  Asperigillus niger CFU: 0 CFU × 10^5/ml
[4]; CS 0.6% in water, 7 days
  Asperigillus niger CFU: 0 CFU × 10^5/ml
[4]; CS 1.2% in water, 24 hours
  Asperigillus niger CFU: 0 CFU × 10^5/ml
[4]; CS 1.2% in water, 48 hours
  Asperigillus niger CFU: 0 CFU × 10^5/ml
[4]; CS 1.2% in water, 72 hours
  Asperigillus niger CFU: 0 CFU × 10^5/ml
[4]; CS 1.2% in water, 96 hours
  Asperigillus niger CFU: 0 CFU × 10^5/ml
[4]; CS 1.2% in water, 7 days
  Asperigillus niger CFU: 0 CFU × 10^5/ml
[4]; CS 6% in water, 24 hours
  Asperigillus niger CFU: 0 CFU × 10^5/ml
[4]; CS 6% in water, 48 hours
  Asperigillus niger CFU: 0 CFU × 10^5/ml
[4]; CS 6% in water, 72 hours
  Asperigillus niger CFU: 0 CFU × 10^5/ml
[4]; CS 6% in water, 96 hours
  Asperigillus niger CFU: 0 CFU × 10^5/ml
[4]; CS 6% in water, 7 days
  Asperigillus niger CFU: 0 CFU × 10^5/ml
[4]; CS gel in as low a concentration as 0.6%
  inactivation of Asperigillus: completely inactivated
[5]; 0.06% CS gel, slow growth thereafter
  inactivation of Staphylococcus: initially inactivated most Staphylococcus
[5]; 6% CS gel
  inactivation of Staphyloccus: completely inactivated
[5]; 6% CS gel, ATCC 6538, room temperature, Day 14
  Day 14 CFU/g: 0 CFU/g
[5]; 6% CS gel, ATCC 6538, room temperature, Day 28
  Day 28 CFU/g: 0 CFU/g
[5]; CS 0.06% in water, 24 hours
  Staphylococcus aureus CFU: 0.625 CFU × 10^5/ml
[5]; CS 0.06% in water, 48 hours
  Staphylococcus aureus CFU: 0.715 CFU × 10^5/ml
[5]; CS 0.06% in water, 72 hours
  Staphylococcus aureus CFU: 1.04 CFU × 10^5/ml
[5]; CS 0.06% in water, 96 hours
  Staphylococcus aureus CFU: 2.06 CFU × 10^5/ml
[5]; CS 0.06% in water, 7 days
  Staphylococcus aureus CFU: 5.815 CFU × 10^5/ml
[5]; CS 0.6% in water, 24 hours
  Staphylococcus aureus CFU: 5.17 CFU × 10^5/ml
[5]; CS 0.6% in water, 48 hours
  Staphylococcus aureus CFU: 5.53 CFU × 10^5/ml
[5]; CS 0.6% in water, 72 hours
  Staphylococcus aureus CFU: 4.82 CFU × 10^5/ml
[5]; CS 0.6% in water, 96 hours
  Staphylococcus aureus CFU: 6.41 CFU × 10^5/ml
[5]; CS 0.6% in water, 7 days
  Staphylococcus aureus CFU: 3.25 CFU × 10^5/ml
[5]; CS 1.2% in water, 24 hours
  Staphylococcus aureus CFU: 2.71 CFU × 10^5/ml
[5]; CS 1.2% in water, 48 hours
  Staphylococcus aureus CFU: 4.725 CFU × 10^5/ml
[5]; CS 1.2% in water, 72 hours
  Staphylococcus aureus CFU: 2.39 CFU × 10^5/ml
[5]; CS 1.2% in water, 96 hours
  Staphylococcus aureus CFU: 3.96 CFU × 10^5/ml
[5]; CS 1.2% in water, 7 days
  Staphylococcus aureus CFU: 3.55 CFU × 10^5/ml
[5]; CS 6% in water, 24 hours
  Staphylococcus aureus CFU: 0 CFU × 10^5/ml
[5]; CS 6% in water, 48 hours
  Staphylococcus aureus CFU: 0.005 CFU × 10^5/ml
[5]; CS 6% in water, 72 hours
  Staphylococcus aureus CFU: 0 CFU × 10^5/ml
[5]; CS 6% in water, 96 hours
  Staphylococcus aureus CFU: 0 CFU × 10^5/ml
[5]; CS 6% in water, 7 days
  Staphylococcus aureus CFU: 0 CFU × 10^5/ml
[5]; lower CS concentrations
  inactivation of Staphyloccus: not inactivated but growth was prevented
[6]; 6% CS gel
  inactivation of Escherichia: completely inactivated
[6]; 6% CS gel, ATCC 8739, room temperature, Day 14
  Day 14 CFU/g: 0 CFU/g
[6]; 6% CS gel, ATCC 8739, room temperature, Day 28
  Day 28 CFU/g: 0 CFU/g
[6]; CS 0.06% in water, 24 hours
  Escherichia coli CFU: 0 CFU × 10^5/ml
[6]; CS 0.06% in water, 48 hours
  Escherichia coli CFU: 1.15 CFU × 10^5/ml
[6]; CS 0.06% in water, 72 hours
  Escherichia coli CFU: 1.21 CFU × 10^5/ml
[6]; CS 0.06% in water, 96 hours
  Escherichia coli CFU: 0.13 CFU × 10^5/ml
[6]; CS 0.06% in water, 7 days
  Escherichia coli CFU: 1.12 CFU × 10^5/ml
[6]; CS 0.6% in water, 24 hours
  Escherichia coli CFU: 5.6 CFU × 10^5/ml
[6]; CS 0.6% in water, 48 hours
  Escherichia coli CFU: 5.81 CFU × 10^5/ml
[6]; CS 0.6% in water, 72 hours
  Escherichia coli CFU: 4.43 CFU × 10^5/ml
[6]; CS 0.6% in water, 96 hours
  Escherichia coli CFU: 6.92 CFU × 10^5/ml
[6]; CS 0.6% in water, 7 days
  Escherichia coli CFU: 4.39 CFU × 10^5/ml
[6]; CS 1.2% in water, 24 hours
  Escherichia coli CFU: 0.98 CFU × 10^5/ml
[6]; CS 1.2% in water, 48 hours
  Escherichia coli CFU: 3.125 CFU × 10^5/ml
[6]; CS 1.2% in water, 72 hours
  Escherichia coli CFU: 1.625 CFU × 10^5/ml
[6]; CS 1.2% in water, 96 hours
  Escherichia coli CFU: 4.54 CFU × 10^5/ml
[6]; CS 1.2% in water, 7 days
  Escherichia coli CFU: 3.78 CFU × 10^5/ml
[6]; CS 6% in water, 24 hours
  Escherichia coli CFU: 0 CFU × 10^5/ml
[6]; CS 6% in water, 48 hours
  Escherichia coli CFU: 0.01 CFU × 10^5/ml
[6]; CS 6% in water, 72 hours
  Escherichia coli CFU: 0 CFU × 10^5/ml
[6]; CS 6% in water, 96 hours
  Escherichia coli CFU: 0 CFU × 10^5/ml
[6]; CS 6% in water, 7 days
  Escherichia coli CFU: 0 CFU × 10^5/ml
[6]; lower CS concentrations (except 0.06% CS gel), no growth occurs
  inactivation of Escherichia: either not inactivated or only to a minor extent
